Three compounds from patent publication US7626031B2, “Substituted 3-(diarylmethylene)indolin-2-ones and methods of their use” (Symphony Evolution, Inc., priority 2002, dated 2009) can be followed below.

In one test the target is IRK (Homo sapiens, UniProt P06213). Put plainly: Kinase assay, IRK. The class given is biochemical. As for the experimental part: (§1) Kinase activity and compound inhibition are investigated using one or more assay formats. The ATP concentrations for each assay are selected to be close to the Michaelis-Menten constant (KM) for each individual kinase. Dose-response experiments are performed at 10 different inhibitor concentrations in a 384-well plate format. […] Exemplary kinase assays are described below. KDR Assay
Sequence of IRK (P06213 28-1382): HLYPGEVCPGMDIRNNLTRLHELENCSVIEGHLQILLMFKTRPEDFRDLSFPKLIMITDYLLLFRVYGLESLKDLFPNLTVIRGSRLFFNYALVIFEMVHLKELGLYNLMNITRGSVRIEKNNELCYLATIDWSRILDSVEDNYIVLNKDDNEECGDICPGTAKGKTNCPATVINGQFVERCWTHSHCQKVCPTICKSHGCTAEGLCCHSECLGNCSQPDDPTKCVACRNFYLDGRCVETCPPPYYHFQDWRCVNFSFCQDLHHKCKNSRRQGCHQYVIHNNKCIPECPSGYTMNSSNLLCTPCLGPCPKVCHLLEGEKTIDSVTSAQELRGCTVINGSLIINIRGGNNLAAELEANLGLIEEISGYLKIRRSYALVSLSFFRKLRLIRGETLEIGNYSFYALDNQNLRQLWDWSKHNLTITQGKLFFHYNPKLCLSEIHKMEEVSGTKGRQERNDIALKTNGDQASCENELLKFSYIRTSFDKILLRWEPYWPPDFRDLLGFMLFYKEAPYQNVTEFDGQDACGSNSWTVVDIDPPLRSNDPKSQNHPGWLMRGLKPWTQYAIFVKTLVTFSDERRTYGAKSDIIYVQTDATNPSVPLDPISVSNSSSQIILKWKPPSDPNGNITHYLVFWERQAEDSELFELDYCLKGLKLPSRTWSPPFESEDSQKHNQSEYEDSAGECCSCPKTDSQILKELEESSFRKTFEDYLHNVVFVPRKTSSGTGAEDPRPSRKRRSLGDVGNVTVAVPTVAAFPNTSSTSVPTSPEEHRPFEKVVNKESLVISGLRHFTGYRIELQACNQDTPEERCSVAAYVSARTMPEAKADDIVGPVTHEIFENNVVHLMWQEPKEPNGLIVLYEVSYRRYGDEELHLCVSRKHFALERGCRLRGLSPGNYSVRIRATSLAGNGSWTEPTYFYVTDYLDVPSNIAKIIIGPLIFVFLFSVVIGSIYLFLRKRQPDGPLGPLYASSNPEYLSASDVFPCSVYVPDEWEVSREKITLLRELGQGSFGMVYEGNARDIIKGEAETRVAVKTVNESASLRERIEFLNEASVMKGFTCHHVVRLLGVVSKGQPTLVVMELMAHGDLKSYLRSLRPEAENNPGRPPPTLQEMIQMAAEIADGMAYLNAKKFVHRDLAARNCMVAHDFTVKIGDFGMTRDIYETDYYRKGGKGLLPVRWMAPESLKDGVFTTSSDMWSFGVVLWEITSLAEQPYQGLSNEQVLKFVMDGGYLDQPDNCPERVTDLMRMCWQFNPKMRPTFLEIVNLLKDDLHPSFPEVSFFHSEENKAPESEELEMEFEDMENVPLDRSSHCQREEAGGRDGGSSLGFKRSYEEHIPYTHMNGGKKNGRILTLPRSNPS

A further test concerns the target c-Kit kinase (Homo sapiens, UniProt P10721). Put plainly: c-Kit AlphaScreen kinase assay. The class given is biochemical. On the technique in general: Alpha assays give light when donor and acceptor beads are brought close together.
The target of the next test is T1, Flt3 (Homo sapiens, UniProt P36888).
T1 sequence (P36888 27-993): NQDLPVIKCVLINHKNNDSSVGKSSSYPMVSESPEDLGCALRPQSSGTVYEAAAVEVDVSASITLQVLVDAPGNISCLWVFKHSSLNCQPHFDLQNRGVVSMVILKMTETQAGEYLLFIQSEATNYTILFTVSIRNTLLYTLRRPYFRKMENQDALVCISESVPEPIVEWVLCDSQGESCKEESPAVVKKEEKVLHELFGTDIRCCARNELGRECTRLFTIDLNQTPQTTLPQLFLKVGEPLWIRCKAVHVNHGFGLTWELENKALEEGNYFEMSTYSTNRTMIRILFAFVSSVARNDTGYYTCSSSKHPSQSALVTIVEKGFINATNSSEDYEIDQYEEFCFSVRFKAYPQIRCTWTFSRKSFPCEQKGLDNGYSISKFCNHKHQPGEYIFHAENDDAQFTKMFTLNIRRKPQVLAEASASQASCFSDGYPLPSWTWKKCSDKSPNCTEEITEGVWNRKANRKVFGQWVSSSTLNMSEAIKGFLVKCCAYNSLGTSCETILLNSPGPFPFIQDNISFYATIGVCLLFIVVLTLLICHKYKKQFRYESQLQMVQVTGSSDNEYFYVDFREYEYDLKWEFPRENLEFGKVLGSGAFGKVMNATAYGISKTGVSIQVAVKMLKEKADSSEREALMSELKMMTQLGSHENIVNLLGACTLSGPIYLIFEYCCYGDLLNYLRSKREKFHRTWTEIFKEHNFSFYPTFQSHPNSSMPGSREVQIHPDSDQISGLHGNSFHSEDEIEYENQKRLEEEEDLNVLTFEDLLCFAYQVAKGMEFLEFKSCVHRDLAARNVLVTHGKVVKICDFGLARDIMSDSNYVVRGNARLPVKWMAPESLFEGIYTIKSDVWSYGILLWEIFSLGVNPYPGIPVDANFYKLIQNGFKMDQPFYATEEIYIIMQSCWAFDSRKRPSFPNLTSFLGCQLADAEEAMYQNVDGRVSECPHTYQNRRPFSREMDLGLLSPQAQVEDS
Nature of the test: Kinase assay, Flt3. The class given is biochemical. As for the experimental part:
as §1

In another test the target is EphA2 (Homo sapiens, UniProt P29317). Nature of the test: Kinase assay, EphA2 (33P-ATP incorporation or luciferase-coupled ATP consumption). The class given is biochemical. The method in brief:
(§2)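 Radiometric format: γ-33P ATP incorporation into plate-immobilized myelin basic protein, enzyme 10 nM or 20 nM, 10 μM or 30 μM unlabeled ATP, 1 h at room temperature, 1% DMSO, scintillation counting; alternatively luciferase-measured ATP consumption with pEY substrate. ATP set near each kinase's KM; 10-point dose-response.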

A further test concerns the target EGFR (Homo sapiens, UniProt P00533). Put plainly: Kinase assay, EGFR (33P-ATP incorporation or luciferase-coupled ATP consumption). Type of test: biochemical. In outline: as §2
The next test addresses Fyn (Homo sapiens, UniProt P06241). Put plainly: Kinase assay, Fyn. Type of test: biochemical. As for the experimental part:
as §1

For the next test, the target named is ALK (Homo sapiens, UniProt Q9UM73). Nature of the test: Kinase assay, ALK (33P-ATP incorporation or luciferase-coupled ATP consumption). The class given is biochemical. As for the experimental part: Kinase assays were performed by measurement of incorporation of γ-^33P ATP into immobilized myelin basic protein (MBP). […] Plates were washed 3× with 100 μl TBS. […] Compound dilutions were performed in DMSO and added to assay wells to a final DMSO concentration of 1%. Each data point was measured in duplicate, and at least two duplicate assays were performed for each individual compound determination. Enzyme was added to final concentrations of 10 nM or 20 nM, for example. A mixture of unlabeled ATP and γ-^33P ATP was added to start the reaction (2×10^6 cpm of γ-^33P ATP per well (3000 Ci/mmole) and either 10 μM or 30 μM unlabeled ATP, typically. The reactions were carried out for 1 hour at room temperature with shaking. Plates were washed 7× with TBS, followed by the addition of 50 μl/well scintillation fluid (Wallac). Plates were read using a Wallac Trilux counter. This is only one format of such assays, various other formats are possible, as known to one of ordinary skill in the art.
Tyrosine kinase activity is determined by 1) measurement of kinase-dependent ATP consumption by in the presence of a generic substrate such as, polyglutamic acid, tyrosine, 4:1 (pEY), by luciferase/luciferin-mediated chemiluminescence or; 2) incorporation of radioactive phosphate derived from ^33P-ATP into a generic substrate which has been adsorbed onto the well surface of polystyrene microtiter plates. Phosphorylated substrate products are quantified by scintillation spectrometry.
as §1

Another test addresses FGFR1 (Homo sapiens, UniProt P11362). Nature of the test: Kinase assay, FGFR1 (33P-ATP incorporation or luciferase-coupled ATP consumption). Type of test: biochemical. In outline:
as §2

Another test deals with PDGFR alpha (Homo sapiens, UniProt P16234). Put plainly: Kinase assay, PDGFR alpha (33P-ATP incorporation or luciferase-coupled ATP consumption). The class given is biochemical. The note with it: read-out: PDGF-R-A IC50. In outline: as §2
The target in test [1] is T2, KDR (baculovirus expressed human KDR kinase domain D807-V1356) (Homo sapiens, UniProt P35968).
T2 construct: human KDR kinase domain D807-V1356; host or cells: baculovirus expression system
Put plainly: biochemical. In outline:
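Baculovirus human KDR kinase domain (D807–V1356) with ATP near its KM; 10-point dose-response, 4 h at ambient temperature. Activity taken as percent ATP remaining, detected by luciferase–luciferin chemiluminescence.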

Sequence of EphA2 (P29317 24-976, species assumed): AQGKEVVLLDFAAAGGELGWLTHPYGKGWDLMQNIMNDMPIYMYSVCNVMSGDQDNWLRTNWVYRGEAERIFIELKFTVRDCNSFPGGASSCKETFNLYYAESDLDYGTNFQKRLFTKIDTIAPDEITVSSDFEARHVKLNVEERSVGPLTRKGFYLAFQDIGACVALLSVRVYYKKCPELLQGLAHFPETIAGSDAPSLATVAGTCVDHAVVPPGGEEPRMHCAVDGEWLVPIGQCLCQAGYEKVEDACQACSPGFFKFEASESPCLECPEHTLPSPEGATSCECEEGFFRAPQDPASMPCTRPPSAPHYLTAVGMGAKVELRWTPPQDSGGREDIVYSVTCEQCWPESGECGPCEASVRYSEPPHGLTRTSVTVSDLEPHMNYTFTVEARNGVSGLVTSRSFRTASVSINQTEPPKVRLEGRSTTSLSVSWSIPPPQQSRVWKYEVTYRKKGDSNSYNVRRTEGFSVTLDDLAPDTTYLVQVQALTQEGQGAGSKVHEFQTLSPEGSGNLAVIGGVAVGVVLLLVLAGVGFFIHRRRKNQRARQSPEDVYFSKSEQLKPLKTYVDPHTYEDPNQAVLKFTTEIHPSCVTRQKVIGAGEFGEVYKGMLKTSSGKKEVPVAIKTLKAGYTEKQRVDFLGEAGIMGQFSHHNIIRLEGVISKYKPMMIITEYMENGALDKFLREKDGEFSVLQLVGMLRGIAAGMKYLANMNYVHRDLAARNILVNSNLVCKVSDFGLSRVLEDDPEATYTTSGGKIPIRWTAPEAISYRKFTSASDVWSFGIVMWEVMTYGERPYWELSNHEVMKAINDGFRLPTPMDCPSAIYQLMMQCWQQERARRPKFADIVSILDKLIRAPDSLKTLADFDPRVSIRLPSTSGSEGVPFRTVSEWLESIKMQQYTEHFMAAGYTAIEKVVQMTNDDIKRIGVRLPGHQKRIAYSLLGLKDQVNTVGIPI
Sequence of Fyn (P06241 whole entry, species assumed): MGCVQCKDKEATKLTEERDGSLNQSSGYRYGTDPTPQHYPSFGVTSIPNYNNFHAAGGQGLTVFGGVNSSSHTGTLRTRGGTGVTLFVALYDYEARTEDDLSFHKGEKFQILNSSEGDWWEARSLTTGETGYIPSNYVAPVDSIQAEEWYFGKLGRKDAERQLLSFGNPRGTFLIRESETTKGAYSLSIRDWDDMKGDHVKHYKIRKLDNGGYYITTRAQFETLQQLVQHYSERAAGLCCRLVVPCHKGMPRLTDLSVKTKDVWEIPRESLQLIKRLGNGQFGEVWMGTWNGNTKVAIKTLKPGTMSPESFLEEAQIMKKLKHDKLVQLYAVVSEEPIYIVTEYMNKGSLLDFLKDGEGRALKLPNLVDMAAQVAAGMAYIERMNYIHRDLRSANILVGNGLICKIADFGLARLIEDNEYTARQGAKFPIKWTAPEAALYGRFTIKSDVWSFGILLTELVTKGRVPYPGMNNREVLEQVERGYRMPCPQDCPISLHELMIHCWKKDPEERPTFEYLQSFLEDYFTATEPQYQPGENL
Sequence of c-Kit kinase (P10721 26-976): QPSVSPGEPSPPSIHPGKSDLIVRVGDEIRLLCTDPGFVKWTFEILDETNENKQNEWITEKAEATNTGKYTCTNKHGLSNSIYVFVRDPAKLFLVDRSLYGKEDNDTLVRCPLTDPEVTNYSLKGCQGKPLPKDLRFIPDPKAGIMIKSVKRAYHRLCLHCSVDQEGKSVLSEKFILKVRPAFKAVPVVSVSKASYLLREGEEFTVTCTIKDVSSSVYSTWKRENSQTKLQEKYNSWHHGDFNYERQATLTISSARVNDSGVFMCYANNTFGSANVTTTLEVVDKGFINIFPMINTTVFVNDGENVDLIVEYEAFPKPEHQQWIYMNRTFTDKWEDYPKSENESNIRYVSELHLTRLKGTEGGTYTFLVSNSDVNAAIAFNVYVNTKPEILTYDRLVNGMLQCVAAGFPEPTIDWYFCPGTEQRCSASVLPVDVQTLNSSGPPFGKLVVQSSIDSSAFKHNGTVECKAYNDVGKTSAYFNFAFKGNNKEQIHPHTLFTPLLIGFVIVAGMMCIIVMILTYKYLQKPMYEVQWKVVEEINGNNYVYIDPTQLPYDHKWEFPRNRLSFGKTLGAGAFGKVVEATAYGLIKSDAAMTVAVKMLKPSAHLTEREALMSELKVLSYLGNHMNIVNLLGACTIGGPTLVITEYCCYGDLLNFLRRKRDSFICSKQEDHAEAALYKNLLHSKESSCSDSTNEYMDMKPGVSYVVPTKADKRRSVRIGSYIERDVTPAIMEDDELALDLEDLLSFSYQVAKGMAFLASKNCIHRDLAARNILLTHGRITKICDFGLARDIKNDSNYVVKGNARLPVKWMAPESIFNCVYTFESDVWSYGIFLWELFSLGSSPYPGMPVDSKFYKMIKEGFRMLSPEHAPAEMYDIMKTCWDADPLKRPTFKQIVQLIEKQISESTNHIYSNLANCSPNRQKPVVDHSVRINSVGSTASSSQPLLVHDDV
Sequence of EGFR (P00533 25-1210, species assumed): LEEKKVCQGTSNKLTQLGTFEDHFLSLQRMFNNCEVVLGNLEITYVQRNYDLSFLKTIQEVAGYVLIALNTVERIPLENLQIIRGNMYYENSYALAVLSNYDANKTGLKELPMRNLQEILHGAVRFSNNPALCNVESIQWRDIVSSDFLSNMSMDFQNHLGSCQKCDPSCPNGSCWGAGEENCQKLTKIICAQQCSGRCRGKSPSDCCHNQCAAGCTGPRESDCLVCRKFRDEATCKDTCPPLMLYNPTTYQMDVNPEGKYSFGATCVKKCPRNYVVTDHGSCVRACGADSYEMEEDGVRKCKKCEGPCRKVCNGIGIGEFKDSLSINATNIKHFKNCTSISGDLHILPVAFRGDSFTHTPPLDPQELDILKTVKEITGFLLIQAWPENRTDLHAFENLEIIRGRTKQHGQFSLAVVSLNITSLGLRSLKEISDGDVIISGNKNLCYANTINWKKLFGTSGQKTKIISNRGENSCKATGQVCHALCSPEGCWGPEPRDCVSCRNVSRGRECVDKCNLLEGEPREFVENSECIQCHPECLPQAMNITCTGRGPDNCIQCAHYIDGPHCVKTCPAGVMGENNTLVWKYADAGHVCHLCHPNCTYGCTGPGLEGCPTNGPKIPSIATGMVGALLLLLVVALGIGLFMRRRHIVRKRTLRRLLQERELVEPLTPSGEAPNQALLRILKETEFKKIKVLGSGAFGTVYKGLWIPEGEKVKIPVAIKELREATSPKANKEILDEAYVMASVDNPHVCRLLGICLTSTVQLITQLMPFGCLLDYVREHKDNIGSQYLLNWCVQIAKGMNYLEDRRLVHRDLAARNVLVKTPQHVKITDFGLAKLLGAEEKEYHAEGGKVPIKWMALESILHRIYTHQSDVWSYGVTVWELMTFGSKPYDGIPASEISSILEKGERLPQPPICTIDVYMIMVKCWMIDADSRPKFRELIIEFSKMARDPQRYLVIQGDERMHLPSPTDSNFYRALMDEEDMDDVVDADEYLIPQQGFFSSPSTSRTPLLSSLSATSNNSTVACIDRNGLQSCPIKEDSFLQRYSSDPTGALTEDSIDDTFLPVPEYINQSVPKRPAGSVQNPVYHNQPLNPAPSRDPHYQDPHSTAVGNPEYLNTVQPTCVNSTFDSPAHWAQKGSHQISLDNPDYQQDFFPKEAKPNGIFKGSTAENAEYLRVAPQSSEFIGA

By IC50 is commonly meant the concentration at which inhibition is half-maximal. Take `CCN1CCC(Nc2ccc3c(c2)/C(=C(\c2cc(F)cc(F)c2)c2nc(C)c[nH]2)C(=O)N3)CC1` [Entry 74, (3Z)-3-[(3,5-difluorophenyl)(4-methyl-1H-imidazol-2-yl)methylidene]-5-[(1-ethylpiperidin-4-yl)amino]-1,3-dihydro-2H-indol-2-one]: the IC50 on IRK was 500 to 5000 nM; against c-Kit kinase it was less than 50 nM; against Flt3, less than 50 nM; against EphA2, 50 to 500 nM; against EGFR it was 50 to 500 nM; on Fyn, less than 50 nM. On ALK, this compound gave an IC50 of 50 to 500 nM.

Consider `CCN1CCC(Nc2ccc3c(c2)/C(=C(/c2nc(C)c[nH]2)c2cc(F)c(Cl)cc2Cl)C(=O)N3)CC1` [Entry 117, (3Z)-3-[(2,4-dichloro-5-fluorophenyl)(4-methyl-1H-imidazol-2-yl)methylidene]-5-[(1-ethylpiperidin-4-yl)amino]-1,3-dihydro-2H-indol-2-one], for which the IC50 at IRK was 500 to 5000 nM; at c-Kit kinase, less than 50 nM; against FGFR1, less than 50 nM; on Flt3 it was less than 50 nM; against EphA2 it was 500 to 5000 nM; at EGFR, 50 to 500 nM. Also, the IC50 (on PDGFR alpha; in test [1]; on Fyn) was less than 50 nM throughout.

Regarding `CCN1CCC(Nc2ccc3c(c2)/C(=C(/c2ncc[nH]2)c2cc(F)c(Cl)cc2Cl)C(=O)N3)CC1` [Entry 116, (3Z)-3-[(2,4-dichloro-5-fluorophenyl) (1H-imidazol-2-yl)methylidene]-5-[(1-ethylpiperidin-4-yl)amino]-1,3-dihydro-2H-indol-2-one], the IC50 against IRK is 500 to 5000 nM; at c-Kit kinase, less than 50 nM; against FGFR1, less than 50 nM; on Flt3, less than 50 nM; against EphA2, 500 to 5000 nM; at EGFR it was 50 to 500 nM. The IC50 (on PDGFR alpha; in [1]; on Fyn) was less than 50 nM in each case.
